Data reported in the supplement of paper PMC5662764.
± gives the standard deviation of the averaged measurements.

Columns and labels:
Assay in all cases: normalised growth rate inhibition (GR value) relative to DMSO control (GR (1 = untreated growth, 0 = cytostasis, <0 = cytotoxic)); higher = less growth inhibition
Settings in all cases: 72 h
MCF7 = tested on: MCF7
Description: (§1)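 Breast cancer cell lines (BT-20, Hs 578T, MCF 10A, MCF7, MDA-MB-231, SK-BR-3) were plated in 384-well plates and treated 24 h later with drugs at six concentrations (0.04-10 µM). Viable cells were counted by Hoechst/dead-cell-stain imaging at 0 and 72 h. Counts were normalised to DMSO controls on the same plate to give the relative cell count and the growth-rate inhibition (GR) value; technical plate triplicates were averaged for each biological replicate.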

HS578T = tested on: HS578T
Description: as §1

MCF10A = tested on: MCF10A
Description: as §1

SKBR3 = tested on: SKBR3
Description: as §1

MDAMB231 = tested on: MDAMB231
Description: as §1

BT20 = tested on: BT20
Description: as §1

Row | SMILES | normalised growth rate inhibition (MCF7; 0.04 µM) | normalised growth rate inhibition (MCF7; 0.12 µM) | normalised growth rate inhibition (MCF7; 0.37 µM) | normalised growth rate inhibition (MCF7; 1.11 µM) | normalised growth rate inhibition (MCF7; 3.33 µM) | normalised growth rate inhibition (MCF7; 10 µM) | normalised growth rate inhibition (HS578T; 0.04 µM) | normalised growth rate inhibition (HS578T; 0.12 µM) | normalised growth rate inhibition (HS578T; 0.37 µM) | normalised growth rate inhibition (HS578T; 1.11 µM) | normalised growth rate inhibition (HS578T; 3.33 µM) | normalised growth rate inhibition (HS578T; 10 µM) | normalised growth rate inhibition (MCF10A; 0.04 µM) | normalised growth rate inhibition (MCF10A; 0.12 µM) | normalised growth rate inhibition (MCF10A; 0.37 µM) | normalised growth rate inhibition (MCF10A; 1.11 µM) | normalised growth rate inhibition (MCF10A; 3.33 µM) | normalised growth rate inhibition (MCF10A; 10 µM) | normalised growth rate inhibition (SKBR3; 0.04 µM) | normalised growth rate inhibition (SKBR3; 0.12 µM) | normalised growth rate inhibition (SKBR3; 0.37 µM) | normalised growth rate inhibition (SKBR3; 1.11 µM) | normalised growth rate inhibition (SKBR3; 3.33 µM) | normalised growth rate inhibition (SKBR3; 10 µM) | normalised growth rate inhibition (MDAMB231; 0.04 µM) | normalised growth rate inhibition (MDAMB231; 0.12 µM) | normalised growth rate inhibition (MDAMB231; 0.37 µM) | normalised growth rate inhibition (MDAMB231; 1.11 µM) | normalised growth rate inhibition (MDAMB231; 3.33 µM) | normalised growth rate inhibition (MDAMB231; 10 µM) | normalised growth rate inhibition (BT20; 0.04 µM) | normalised growth rate inhibition (BT20; 0.12 µM) | normalised growth rate inhibition (BT20; 0.37 µM) | normalised growth rate inhibition (BT20; 1.11 µM) | normalised growth rate inhibition (BT20; 3.33 µM) | normalised growth rate inhibition (BT20; 10 µM)
1 | O=c1cc(N2CCOCC2)oc2c(-c3cccc4c3sc3ccccc34)cccc12 [NU-7441] | 1 ± 0.055 | 0.955 ± 0.024 | 0.937 ± 0.053 | 0.892 ± 0.1 | 0.747 ± 0.11 | 0.241 ± 0.28 | 0.974 ± 0.01 | 0.9337 ± 0.0078 | 0.911 ± 0.022 | 0.789 ± 0.037 | 0.612 ± 0.02 | 0.144 ± 0.094 | 1.022 ± 0.0064 | 1.001 ± 0.0035 | 0.9817 ± 0.005 | 0.957 ± 0.015 | 0.894 ± 0.034 | 0.357 ± 0.3 | 1.04 ± 0.036 | 0.957 ± 0.035 | 0.868 ± 0.061 | 0.714 ± 0.15 | 0.644 ± 0.082 | 0.199 ± 0.077 | 1.02 ± 0.043 | 0.955 ± 0.046 | 0.892 ± 0.085 | 0.843 ± 0.075 | 0.579 ± 0.11 | 0.147 ± 0.16 | 1.06 ± 0.025 | 1.02 ± 0.044 | 0.998 ± 0.035 | 0.958 ± 0.049 | 0.853 ± 0.098 | 0.263 ± 0.17
2 | CC[C@@H]1C(=O)N(C)c2cnc(Nc3ccc(C(=O)NC4CCN(C)CC4)cc3OC)nc2N1C1CCCC1 [BI-2536] | 0.101 ± 0.044 | 0.0593 ± 0.017 | 0.0551 ± 0.044 | 0.0492 ± 0.066 | 0.0223 ± 0.047 | -0.191 ± 0.038 | -0.128 ± 0.11 | -0.125 ± 0.14 | -0.0972 ± 0.11 | -0.0687 ± 0.11 | -0.0582 ± 0.1 | -0.125 ± 0.16 | -0.0473 ± 0.13 | -0.0192 ± 0.14 | 0.00696 ± 0.13 | 1.1e-05 ± 0.11 | -0.0132 ± 0.098 | 0.00366 ± 0.082 | -0.136 ± 0.22 | -0.151 ± 0.18 | -0.109 ± 0.23 | -0.15 ± 0.23 | -0.158 ± 0.2 | -0.208 ± 0.25 | 0.0155 ± 0.14 | 0.00874 ± 0.1 | 0.00566 ± 0.14 | 0.0242 ± 0.14 | 0.0274 ± 0.12 | -0.0537 ± 0.25 | -0.177 ± 0.15 | -0.203 ± 0.19 | -0.198 ± 0.17 | -0.163 ± 0.16 | -0.143 ± 0.14 | -0.137 ± 0.17
3 | c1ccc2c(-c3cnn4cc(-c5ccc(N6CCNCC6)cc5)cnc34)ccnc2c1 | 1.08 ± 0.047 | 1 ± 0.075 | 1.01 ± 0.072 | 0.868 ± 0.044 | 0.258 ± 0.34 | -0.368 ± 0.019 | 0.952 ± 0.025 | 0.911 ± 0.011 | 0.897 ± 0.027 | 0.862 ± 0.072 | 0.244 ± 0.58 | -0.361 ± 0.083 | 0.999 ± 0.014 | 0.9817 ± 0.0032 | 0.9705 ± 0.0076 | 0.953 ± 0.032 | 0.661 ± 0.34 | -0.396 ± 0.11 | 1.09 ± 0.11 | 1.04 ± 0.11 | 1.09 ± 0.056 | 0.987 ± 0.048 | -0.0902 ± 0.23 | -0.515 ± 0.11 | 0.996 ± 0.073 | 0.938 ± 0.084 | 0.925 ± 0.072 | 0.727 ± 0.056 | 0.0105 ± 0.45 | -0.355 ± 0.038 | 0.994 ± 0.036 | 0.905 ± 0.039 | 0.915 ± 0.093 | 0.645 ± 0.21 | -0.08 ± 0.34 | -0.507 ± 0.082
4 | CCC(=O)N1CCN(c2ccc(-n3c(=O)ccc4cnc5ccc(-c6cnc7ccccc7c6)cc5c43)cc2C(F)(F)F)CC1 [torin-1] | 0.166 ± 0.044 | 0.119 ± 0.024 | 0.082 ± 0.038 | 0.0141 ± 0.045 | -0.0224 ± 0.046 | -0.068 ± 0.033 | 0.267 ± 0.069 | 0.213 ± 0.075 | 0.163 ± 0.086 | 0.0994 ± 0.083 | 0.0438 ± 0.084 | -0.093 ± 0.14 | 0.529 ± 0.13 | 0.304 ± 0.042 | 0.198 ± 0.017 | 0.161 ± 0.026 | 0.156 ± 0.006 | 0.0917 ± 0.027 | 0.0209 ± 0.19 | -0.0144 ± 0.18 | -0.0642 ± 0.15 | -0.11 ± 0.18 | -0.161 ± 0.17 | -0.218 ± 0.19 | 0.464 ± 0.038 | 0.339 ± 0.053 | 0.243 ± 0.073 | 0.178 ± 0.051 | 0.116 ± 0.055 | -0.0316 ± 0.1 | 0.271 ± 0.076 | 0.11 ± 0.081 | 0.0128 ± 0.054 | -0.0682 ± 0.033 | -0.152 ± 0.025 | -0.251 ± 0.026
5 | CCn1c(-c2nonc2N)nc2c(C#CC(C)(C)O)ncc(OC[C@H]3CCCNC3)c21 | 0.6 ± 0.073 | 0.499 ± 0.17 | 0.42 ± 0.13 | 0.374 ± 0.096 | 0.361 ± 0.09 | 0.312 ± 0.09 | 0.846 ± 0.058 | 0.798 ± 0.075 | 0.726 ± 0.084 | 0.713 ± 0.11 | 0.717 ± 0.13 | 0.728 ± 0.12 | 0.989 ± 0.029 | 0.976 ± 0.024 | 0.937 ± 0.039 | 0.873 ± 0.034 | 0.872 ± 0.039 | 0.891 ± 0.042 | 0.578 ± 0.064 | 0.555 ± 0.035 | 0.556 ± 0.038 | 0.571 ± 0.039 | 0.62 ± 0.032 | 0.658 ± 0.065 | 0.86 ± 0.088 | 0.904 ± 0.021 | 0.906 ± 0.021 | 0.94 ± 0.026 | 1.01 ± 0.032 | 0.869 ± 0.08 | 0.8181 ± 0.0049 | 0.779 ± 0.062 | 0.636 ± 0.11 | 0.521 ± 0.12 | 0.453 ± 0.062 | 0.371 ± 0.047
6 | CCCS(=O)(=O)Nc1ccc(F)c(C(=O)c2c[nH]c3ncc(-c4ccc(Cl)cc4)cc23)c1F [vemurafenib] | 0.978 ± 0.017 | 1.02 ± 0.024 | 1.03 ± 0.015 | 1.01 ± 0.046 | 0.998 ± 0.022 | 0.858 ± 0.086 | 1.04 ± 0.014 | 1.03 ± 0.011 | 1.03 ± 0.038 | 1.01 ± 0.051 | 0.89 ± 0.075 | 0.548 ± 0.033 | 0.9898 ± 0.0042 | 0.9881 ± 0.0069 | 0.9871 ± 0.0051 | 0.955 ± 0.045 | 0.798 ± 0.14 | 0.462 ± 0.096 | 1.05 ± 0.069 | 1.03 ± 0.044 | 1.03 ± 0.04 | 1.01 ± 0.042 | 0.951 ± 0.046 | 0.805 ± 0.032 | 0.975 ± 0.042 | 0.965 ± 0.03 | 0.964 ± 0.025 | 0.897 ± 0.061 | 0.827 ± 0.064 | 0.422 ± 0.042 | 0.971 ± 0.051 | 0.968 ± 0.052 | 0.964 ± 0.035 | 0.949 ± 0.057 | 0.87 ± 0.031 | 0.582 ± 0.032
7 | CCN(CC)CCCCNc1ncc2cc(-c3cc(OC)cc(OC)c3)c(NC(=O)NC(C)(C)C)nc2n1 | 1.1 ± 0.066 | 1.08 ± 0.029 | 1.04 ± 0.078 | 1.1 ± 0.066 | 1.1 ± 0.12 | 0.572 ± 0.16 | 0.852 ± 0.074 | 0.824 ± 0.083 | 0.835 ± 0.074 | 0.846 ± 0.061 | 0.809 ± 0.071 | 0.164 ± 0.14 | 1.022 ± 0.0032 | 1.005 ± 0.0025 | 0.9981 ± 0.0038 | 0.9929 ± 0.0079 | 0.984 ± 0.016 | 0.644 ± 0.15 | 1.14 ± 0.12 | 1.12 ± 0.13 | 1.08 ± 0.085 | 1.13 ± 0.12 | 1.12 ± 0.11 | 0.209 ± 0.2 | 1.08 ± 0.053 | 1.07 ± 0.032 | 1.08 ± 0.079 | 1.07 ± 0.054 | 1.04 ± 0.018 | 0.0514 ± 0.23 | 1.1 ± 0.039 | 1.08 ± 0.058 | 1.09 ± 0.056 | 1.14 ± 0.066 | 1.16 ± 0.049 | 0.853 ± 0.18
8 | CNC(=O)Nc1ccc(-c2nc(N3CC4CCC(C3)O4)c3cnn(C4CCC5(CC4)OCCO5)c3n2)cc1 | 0.16 ± 0.091 | 0.14 ± 0.1 | 0.13 ± 0.069 | 0.149 ± 0.1 | 0.0933 ± 0.1 | -0.00137 ± 0.14 | 0.268 ± 0.079 | 0.212 ± 0.066 | 0.198 ± 0.091 | 0.172 ± 0.096 | 0.177 ± 0.093 | 0.101 ± 0.15 | 0.506 ± 0.15 | 0.284 ± 0.064 | 0.224 ± 0.057 | 0.176 ± 0.017 | 0.151 ± 0.042 | 0.14 ± 0.026 | 0.0703 ± 0.093 | 0.000862 ± 0.13 | -0.00643 ± 0.17 | -0.00784 ± 0.15 | -0.0626 ± 0.15 | -0.0635 ± 0.14 | 0.499 ± 0.16 | 0.369 ± 0.18 | 0.301 ± 0.15 | 0.285 ± 0.12 | 0.23 ± 0.12 | 0.0984 ± 0.14 | 0.473 ± 0.17 | 0.269 ± 0.11 | 0.208 ± 0.084 | 0.15 ± 0.064 | 0.113 ± 0.075 | 0.0435 ± 0.086
